Experimental data reported in ChEMBL document CHEMBL4765311, “Synthesis and biological evaluation of 4-(pyridin-4-oxy)-3-(3,3-difluorocyclobutyl)-pyrazole derivatives as novel potent transforming growth factor-β type 1 receptor inhibitors” (Eur J Med Chem, 2020).

Tests used:
[1] = in vivo; details: BALB/c, mouse, iv, 1 mg/kg
[2] = in vivo; details: BALB/c, mouse, iv, 1 mg/kg; remark: listed apart in the source
[3] = in vivo; details: BALB/c, mouse, po, 10 mg/kg
[4] = in vivo; details: BALB/c, mouse, iv, 1 mg/kg; remark: listed apart in the source
[5] = in vivo; details: BALB/c, mouse, po, 10 mg/kg; remark: listed apart in the source
[6] = in vivo; details: BALB/c, mouse, po, 10 mg/kg; remark: listed apart in the source

Question: Which Vd at 24 h [1] does the source give for `CC(C)(O)c1cc(Nc2cc(Oc3cn(C4CC4)nc3C3CCOCC3)ccn2)ccn1` [LY-3200882] here?
Answer: Its Vd at 24 h is 2.3 L/kg.

Question: And the half-life at 24 h [2]?
Answer: The half-life at 24 h was 24 min.

Question: What about the bioavailability at 24 h [3] of the same molecule?
Answer: The bioavailability at 24 h was 45.6%.

Question: And the clearance at 24 h [4]?
Answer: The clearance at 24 h was 86.7 mL/min/kg.

Question: And the Cmax at 24 h [5]?
Answer: The Cmax at 24 h was 747 ng/mL.

Question: And the half-life at 24 h [6]?
Answer: The half-life at 24 h was 66 min.
